Measured values taken from patent US20240306641A1, “P-BOOSTER” (EUROCHEM ANTWERPEN, priority 2021, published 2024).

Test system: rice cultivar Nipponbare
Assay: Rice plate experiment (plant height)
Format: in vivo
Details: low phosphate 0.001 mM, 10 μM compound, 11 days after germination
Description: All Arabidopsis plant experiments were performed using the Arabidopsis thaliana Columbia-0 background. The Arabidopsis pSPX1::GUS line is described in the […] 2008, 54: 965-975. For rice, the cultivar Nipponbare was used. For maize, the cultivars DKC 2931 and 8104 were used for regular pot experiments and sand-based pot experiments, respectively. For soybean, the cultivar Primus was used. […] The medium was solidified due to the addition of 0.6% Gelrite, unless stated otherwise. […]
Arabidopsis primary root growth experiments were done on MS1/2 on vertical standing plates and roots were measured 11 days after germination. Roots were imaged using a flatbed scanner (EPSON Expression 11000XL) and root length was measured using ImageJ software. Arabidopsis shoot biomass was determined in 11 days after germination and growth on vertical standing plates with modMS. Arabidopsis leaf area was measured 21 days after germination on horizontal plates with modMS medium. Plates were scanned from the top using a flatbed scanner (EPSON Expression 11000XL) and the visible leaf area was measured using ImageJ software. […] Plant height was measured 11 days after germination. […] Plant height was measured 13 days after germination. […]

Compound: CCN(CCCNc1ncnc2nc(N)ccc12)c1ccccc1 [Example 1]
- Plant height: 15 cm
